# Experimental data reported in ChEMBL document CHEMBL3779842, “Isopimarane diterpenoids from Kaempferia pulchra rhizomes collected in Myanmar and their Vpr inhibitory activity” (Bioorg Med Chem Lett, 2016).
# Calls of active or inactive are those of the source. The calls are words filed in the database; no cut-off is given here.
# How the values were obtained:
# Assay type in all cases: cell-based
# Settings in all cases: Human immunodeficiency virus 1
# TREx-HeLa-Vpr [1] = test: Inhibition of -c-myc-His6 tagged HIV1 NL4-3 Vpr expressed in human TREx-HeLa-Vpr cells assessed as cell viability at 6.25 uM after 48 hrs in presence of tetracycline by WST8 assay
# TREx-HeLa-Vpr [2] = test: Inhibition of -c-myc-His6 tagged HIV1 NL4-3 Vpr expressed in human TREx-HeLa-Vpr cells assessed as cell viability at 3.12 uM after 48 hrs in presence of tetracycline by WST8 assay
# TREx-HeLa-Vpr [3] = test: Inhibition of -c-myc-His6 tagged HIV1 NL4-3 Vpr expressed in human TREx-HeLa-Vpr cells assessed as cell viability at 1.56 uM after 48 hrs in presence of tetracycline by WST8 assay
# TREx-HeLa-Vpr [4] = test: Inhibition of -c-myc-His6 tagged HIV1 NL4-3 Vpr expressed in human TREx-HeLa-Vpr cells assessed as cell viability at 5 uM after 48 hrs in presence of tetracycline by WST8 assay
SMILES,Cell viability (TREx-HeLa-Vpr [1]),Activity (TREx-HeLa-Vpr [2]),Activity (TREx-HeLa-Vpr [3]),inhibition (TREx-HeLa-Vpr [1]),inhibition (TREx-HeLa-Vpr [2]),inhibition (TREx-HeLa-Vpr [3]),Activity (TREx-HeLa-Vpr [4])
C=C[C@@]1(C)CCC2=C(C[C@@H](O)[C@H]3C(C)(C)CCC[C@]23C)C1=O,98%,106%,114%,,,,
C=C[C@]1(C)C=C2[C@H](O)C[C@H]3C(C)(C)CCC[C@]3(C)[C@H]2CC1,,,,inactive,inactive,inactive,
C=C[C@]1(C)C=C2[C@@H](OC(C)=O)[C@@H](O)[C@H]3C(C)(C)CCC[C@]3(C)[C@@]2(O)CC1,,,,inactive,inactive,inactive,
C=C[C@]1(C)C=C2[C@@H](O)C[C@H]3C(C)(C)CCC[C@]3(C)[C@@]2(O)CC1,,,,inactive,inactive,inactive,
C=C[C@]1(C)C=C2C(=O)C[C@H]3C(C)(C)CC[C@H](O)[C@]3(C)[C@H]2CC1,,,,inactive,inactive,inactive,
C=C[C@]1(C)C=C2C[C@@H](O)[C@H]3C(C)(C)[C@H](O)C[C@H](O)[C@]3(C)[C@H]2CC1,,,,inactive,inactive,inactive,
C=C[C@@]1(C)CCC2=C(C[C@@H](O)[C@H]3C(C)(C)CCC[C@]23C)[C@H]1OC,,,,inactive,inactive,inactive,
CCOC(=O)/C=C/c1ccc(OC)cc1,,,,inactive,inactive,inactive,
C=C[C@]1(C)C=C2[C@@H](O)[C@@H](O)[C@H]3C(C)(C)CCC[C@]3(C)[C@@]2(O)CC1,96%,111%,130%,,,,
C=C[C@@]1(C)CCC2=C(C[C@@H](O)[C@H]3C(C)(C)CC[C@H](O)[C@]23C)[C@H]1O,,,,inactive,inactive,inactive,
C=C[C@]1(C)C=C2C(=O)C[C@H]3C(C)(C)CCC[C@]3(C)[C@@]2(O)CC1,,,,inactive,inactive,inactive,
C=C[C@]1(C)C=C2C[C@@H](O)[C@H]3C(C)(C)CC[C@H](O)[C@]3(C)[C@H]2CC1,,,,inactive,inactive,inactive,
COc1c(C=O)c(O)cc2c1C(=O)c1ccccc1C2=O,,,,,,,137%
C=C[C@]1(C)C=C2CC[C@H]3C(C)(C)[C@H](O)C[C@H](O)[C@]3(C)[C@H]2CC1,,,,inactive,inactive,inactive,
C=C[C@@]1(C)CCC2=C(C[C@@H](O)[C@H]3C(C)(C)CCC[C@]23C)[C@H]1O,,,,inactive,inactive,inactive,
C=C[C@]1(C)C=C2C[C@@H](O)[C@H]3C(C)(C)CCC[C@]3(C)[C@@]2(OC)CC1,,,,inactive,inactive,inactive,

SMILES,Cell viability (TREx-HeLa-Vpr [1]),Activity (TREx-HeLa-Vpr [2]),Activity (TREx-HeLa-Vpr [3]),inhibition (TREx-HeLa-Vpr [1]),inhibition (TREx-HeLa-Vpr [2]),inhibition (TREx-HeLa-Vpr [3]),Activity (TREx-HeLa-Vpr [4])
C=C[C@]1(C)C=C2CC[C@H]3C(C)(C)CC[C@H](O)[C@]3(C)[C@H]2CC1,,,,inactive,inactive,inactive,
C=C[C@@]1(C)C=C2CC[C@@H]3C(C)(C)C[C@@H](O)C[C@@]3(C)[C@@H]2CC1,,,,inactive,inactive,inactive,
C=C[C@@]1(C)CCC2=C(C[C@@H](O)[C@H]3C(C)(C)CCC[C@]23C)[C@@H]1OC,114%,119%,126%,,,,
C=C[C@@]1(C)CCC2=C(CC[C@H]3C(C)(C)CCC[C@]23C)[C@H]1O,104%,106%,116%,,,,
C=C[C@]1(C)C=C2C[C@@H](O)[C@H]3C(C)(C)CCC[C@]3(C)[C@H]2CC1,,,,inactive,inactive,inactive,
C=C[C@@]1(C)CCC2=C(C(=O)C[C@H]3C(C)(C)CCC[C@]23C)[C@H]1O,,,,inactive,inactive,inactive,
C=C[C@]1(C)C=C2CC[C@H]3C(C)(C)C[C@H](O)[C@H](O)[C@]3(C)[C@H]2[C@H](O)C1,,,,inactive,inactive,inactive,
C=C[C@]1(C)C=C2[C@H](OC(C)=O)C[C@H]3C(C)(C)CCC[C@]3(C)[C@@]2(O)CC1,,,,inactive,inactive,inactive,
C=C[C@]1(C)C=C2CC[C@H]3C(C)(C)C[C@H](O)[C@H](O)[C@]3(C)[C@@]2(O)CC1,,,,inactive,inactive,inactive,
C=C[C@@]1(C)CCC2=C(C[C@@H](O)[C@H]3C(C)(C)CC[C@H](O)[C@]23C)[C@@H]1OC,,,,inactive,inactive,inactive,
C=C[C@]1(C)C=C2C[C@@H](OC(C)=O)[C@H]3C(C)(C)CCC[C@]3(C)[C@@]2(O)CC1,,,,inactive,inactive,inactive,
C=C[C@@]1(C)CCC2=C(C[C@@H](O)[C@H]3C(C)(C)CCC[C@]23C)[C@@H]1O,157%,170%,180%,,,,
C=C[C@]1(C)C=C2[C@H](OC(C)=O)[C@@H](O)[C@H]3C(C)(C)CCC[C@]3(C)[C@H]2CC1,96%,114%,127%,,,,
C=C[C@]1(C)C=C2C[C@@H](O)[C@H]3C(C)(C)CC[C@H](OC(C)=O)[C@]3(C)[C@H]2CC1,105%,116%,130%,,,,
C=C[C@]1(C)C=C2CC[C@H]3C(C)(C)CC[C@H](O)[C@]3(C)[C@H]2[C@H](O)C1,,,,inactive,inactive,inactive,
C=C[C@]1(C)C=C2CC[C@H]3C(C)(C)C[C@H](O)[C@H](O)[C@]3(C)[C@H]2CC1,,,,inactive,inactive,inactive,
